Earlier results, collected in patent publication US5897876A, “Emulsified drug delivery system” (Shire Laboratories Inc., priority 1997, dated 1999).

Test system: peptide transport
Conditions: in other vehicles; "known"

Compound: CCCCC/C=C\C/C=C\CCCCCCCC(=O)O [linoleic acid]
- promote peptide transport: known to promote peptide transport in other vehicles

Compound: CCCCCCCC/C=C\CCCCCCCC(=O)O [oleic acid]
- promote peptide transport: known to promote peptide transport in other vehicles
